In patent publication US8183265B2, “2-adamantyl-butyramide derivatives as selective 11β-HSD1 inhibitors” (Merck Patent GmbH, priority 2006, dated 2012):

Target: Human recombinant 11beta-hydroxysteroid dehydrogenase type 1 (11beta-HSD1) (Homo sapiens, UniProt P28845)
Test: 11beta-HSD1 enzyme assay (HTRF cortisol)
Experimental: Mice liver microsome fractions were purchased from TEBU.
The 11beta-HSD1 enzyme assay was carried out in 96 well microtiter plates in a total volume of 100 μl containing 30 mM Hepes buffer, pH 7.4 with 1 mM EDTA, substrate mixture cortisone/NADPH (200 nM/200 μM), G-6-P (1 mM) and inhibitors in serial dilutions. […] Following mixing, the plates were shaken for 150 minutes at 37° C. The reactions were terminated with 10 μl Acid-18beta glycyrrhetinic stop solution. Determinations of cortisol levels in 11 beta-HSD1 preparations were monitored by HTRF (HTRF cortisol assay from Cis bio international).

Chain of Human recombinant 11beta-hydroxysteroid dehydrogenase type 1 (11beta-HSD1) (P28845 whole entry): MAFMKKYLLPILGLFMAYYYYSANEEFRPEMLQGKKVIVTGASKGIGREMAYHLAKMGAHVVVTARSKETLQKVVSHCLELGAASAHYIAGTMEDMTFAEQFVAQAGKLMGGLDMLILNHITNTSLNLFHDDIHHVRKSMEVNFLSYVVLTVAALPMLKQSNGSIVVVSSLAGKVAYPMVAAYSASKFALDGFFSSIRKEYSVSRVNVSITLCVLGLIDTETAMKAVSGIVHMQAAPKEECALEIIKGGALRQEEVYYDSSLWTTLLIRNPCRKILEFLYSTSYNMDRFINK

- IC50: 0.045 µM
SMILES: COc1cc(Cl)ccc1OCC(C)(C)CC(=O)NC1C2CC3CC(C2)CC1C3 (stereo not shown)
